“And” between values parts separate entries of the source, which are not always exact repeats. Equal entries are not always repeated.
Tested on: 947758-054-R-J2-PDC spheroid growth, percent test/control
Assay: Anticancer human tumor 947758-054-R-J2-PDC patient-derived colon adenocarcinoma cell line growth inhibition [CLK]
Settings: spheroids with HUVEC and MSC; for viability, T/C: stronger effect = lower value
Method in brief: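 Multi-cell-type spheroids combined patient-derived tumor cells with HUVEC endothelial cells and human mesenchymal stem cells. Paired agents were dosed in half-log steps down from about clinical Cmax, or from 10 microM where Cmax was unknown.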

[1] = curve of first compound, second compound 0.0316 µM
[2] = curve of first compound, second compound 0.1 µM
[3] = curve of first compound, second compound 0.316 µM
[4] = curve of first compound, second compound 1 µM
[5] = curve of first compound, second compound 3.16 µM
[6] = curve of first compound, second compound 10 µM
[7] = second compound 0.0316 µM, first compound 0.0316 µM
[8] = second compound 0.0316 µM, first compound 0.1 µM
[9] = second compound 0.0316 µM, first compound 0.316 µM
[10] = second compound 0.0316 µM, first compound 1 µM
[11] = second compound 0.1 µM, first compound 0.0316 µM
[12] = second compound 0.1 µM, first compound 0.1 µM
[13] = second compound 0.1 µM, first compound 0.316 µM
[14] = second compound 0.1 µM, first compound 1 µM
[15] = second compound 0.316 µM, first compound 0.0316 µM
[16] = second compound 0.316 µM, first compound 0.1 µM
[17] = second compound 0.316 µM, first compound 0.316 µM
[18] = second compound 0.316 µM, first compound 1 µM
[19] = second compound 1 µM, first compound 0.0316 µM
[20] = second compound 1 µM, first compound 0.1 µM
[21] = second compound 1 µM, first compound 0.316 µM
[22] = second compound 1 µM, first compound 1 µM
[23] = second compound 3.16 µM, first compound 0.0316 µM
[24] = second compound 3.16 µM, first compound 0.1 µM
[25] = second compound 3.16 µM, first compound 0.316 µM
[26] = second compound 3.16 µM, first compound 1 µM
[27] = second compound 10 µM, first compound 0.0316 µM
[28] = second compound 10 µM, first compound 0.1 µM
[29] = second compound 10 µM, first compound 0.316 µM
[30] = second compound 10 µM, first compound 1 µM
[31] = second compound 0.0316 µM, first compound 3.16 µM
[32] = second compound 0.0316 µM, first compound 10 µM
[33] = second compound 0.1 µM, first compound 3.16 µM
[34] = second compound 0.1 µM, first compound 10 µM
[35] = second compound 0.316 µM, first compound 3.16 µM
[36] = second compound 0.316 µM, first compound 10 µM
[37] = second compound 1 µM, first compound 3.16 µM
[38] = second compound 1 µM, first compound 10 µM
[39] = second compound 3.16 µM, first compound 3.16 µM
[40] = second compound 3.16 µM, first compound 10 µM
[41] = second compound 10 µM, first compound 3.16 µM
[42] = second compound 10 µM, first compound 10 µM
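Further: spheroids exposed to compounds for one week before readout.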
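Wherever viability, T/C is given: 100% = DMSO vehicle control wells.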

`CCc1c2c(nc3ccc(O)cc13)-c1cc3c(c(=O)n1C2)COC(=O)[C@]3(O)CC` + CN1CCN(c2cc(C(=O)Nc3cc4cc(-c5cnn(C)c5)ccc4cn3)ccn2)CC1 gave an IC50 [1] of 7.83 nM, an IC50 [2] of 3.27 nM and an IC50 [3] of under 3.16 nM. The IC50 [4] was under 3.16 nM, the IC50 [5] was under 3.16 nM and the IC50 [6] was under 3.16 nM. It also gave a viability, T/C (second compound 0.0316 µM, first compound 0.00316 µM) of 98.9%, a viability, T/C (second compound 0.0316 µM, first compound 0.01 µM) of 32.5% and a viability, T/C [7] of 22.7%. It also gave a viability, T/C [8] of 16.4%, a viability, T/C [9] of 6.6% and a viability, T/C [10] of 3.27%. The viability, T/C (second compound 0.1 µM, first compound 0.00316 µM) was 51%, the viability, T/C (second compound 0.1 µM, first compound 0.01 µM) was 29.2% and the viability, T/C [11] was 19.8%. It also gave a viability, T/C [12] of 9.54%, a viability, T/C [13] of 3.86% and a viability, T/C [14] of 2.52%. For the same molecule, the viability, T/C (second compound 0.316 µM, first compound 0.00316 µM) was 1.89%, the viability, T/C (second compound 0.316 µM, first compound 0.01 µM) was 2.41% and the viability, T/C [15] was 1.16%. It also gave a viability, T/C [16] of 1.27%, a viability, T/C [17] of 0.15% and a viability, T/C [18] of 0.45%. For the same molecule, the viability, T/C (second compound 1 µM, first compound 0.00316 µM) was 0.1%, the viability, T/C (second compound 1 µM, first compound 0.01 µM) was 0.11% and the viability, T/C [19] was 0.12%. For the same molecule, the viability, T/C [20] was 0.09%, the viability, T/C [21] was 1.68% and the viability, T/C [22] was 0.14%. For the same molecule, the viability, T/C (second compound 3.16 µM, first compound 0.00316 µM) was 0.18%, the viability, T/C (second compound 3.16 µM, first compound 0.01 µM) was 0.26% and the viability, T/C [23] was 0.41%. The viability, T/C [24] was 0.63%, the viability, T/C [25] was 0.68% and the viability, T/C [26] was 1.64%. For the same molecule, the viability, T/C (second compound 10 µM, first compound 0.00316 µM) was 0.21%, the viability, T/C (second compound 10 µM, first compound 0.01 µM) was 0.3% and the viability, T/C [27] was 0.79%. It also gave a viability, T/C [28] of 1.24%, a viability, T/C [29] of 1.43% and a viability, T/C [30] of 1.35%.

With `COc1c(OCCCN2CCOCC2)ccc2c3n(c(=NC(=O)c4cnc(N)nc4)nc12)CCN3` the viability, T/C (compound 0.00316 µM) was 107% and 111%, the viability, T/C (compound 0.01 µM) was 80.8% and 104% and the viability, T/C (compound 0.0316 µM) was 111% and 105%. For the same molecule, the viability, T/C (compound 0.1 µM) was 90.1% and 72%, the viability, T/C (compound 0.316 µM) was 38.9% and 41.3% and the viability, T/C (compound 1 µM) was 23.1% and 22.7%. The IC50 (curve of compound) was 246 nM and 224 nM.

For `C=CC(=O)N1CCN(c2nc(=O)n(-c3c(C)ccnc3C(C)C)c3nc(-c4c(O)cccc4F)c(F)cc23)C(C)C1` (stereo not drawn) + CNC(=O)c1ccc(Nc2nc(OC3CCCC3)c3c(-c4ccc5nc(C)oc5c4)c[nH]c3n2)c(OC)c1, the IC50 [1] was over 10000 nM, the IC50 [2] was over 10000 nM and the IC50 [3] was 6200 nM. The IC50 [4] was under 31.6 nM, the IC50 [5] was under 31.6 nM and the IC50 [6] was under 31.6 nM. It also gave a viability, T/C [7] of 64.6%, a viability, T/C [8] of 69.5% and a viability, T/C [9] of 68.2%. It also gave a viability, T/C [10] of 70.9%, a viability, T/C [31] of 65.9% and a viability, T/C [32] of 51.8%. It also gave a viability, T/C [11] of 78.4%, a viability, T/C [12] of 72.3% and a viability, T/C [13] of 66.1%. For the same molecule, the viability, T/C [14] was 75.5%, the viability, T/C [33] was 68% and the viability, T/C [34] was 51.3%. The viability, T/C [15] was 70.4%, the viability, T/C [16] was 68.8% and the viability, T/C [17] was 47.1%. It also gave a viability, T/C [18] of 80.7%, a viability, T/C [35] of 77.5% and a viability, T/C [36] of 36.7%. It also gave a viability, T/C [19] of 43.3%, a viability, T/C [20] of 45.8% and a viability, T/C [21] of 36.9%. The viability, T/C [22] was 54.5%, the viability, T/C [37] was 45% and the viability, T/C [38] was 20%. For the same molecule, the viability, T/C [23] was 43.1%, the viability, T/C [24] was 38.1% and the viability, T/C [25] was 40.9%. The viability, T/C [26] was 40.9%, the viability, T/C [39] was 31.2% and the viability, T/C [40] was 16%. It also gave a viability, T/C [27] of 32.1%, a viability, T/C [28] of 28.1% and a viability, T/C [29] of 28.6%. For the same molecule, the viability, T/C [30] was 25.7%, the viability, T/C [41] was 21.1% and the viability, T/C [42] was 15.1%.

Molecule `CC(CO)NC(=O)c1cc(-c2ccc(Cl)cc2)nn(-c2cnn(C)c2)c1=O` (stereo not drawn) + CN1CCN(c2cc(C(=O)Nc3cc4cc(-c5cnn(C)c5)ccc4cn3)ccn2)CC1 has an IC50 [1] of over 10000 nM, an IC50 [2] of over 10000 nM and an IC50 [3] of under 31.6 nM. For the same molecule, the IC50 [4] was under 31.6 nM, the IC50 [5] was under 31.6 nM and the IC50 [6] was under 31.6 nM. For the same molecule, the viability, T/C [7] was 91.8%, the viability, T/C [8] was 112% and the viability, T/C [9] was 105%. For the same molecule, the viability, T/C [10] was 110%, the viability, T/C [31] was 126% and the viability, T/C [32] was 155%. It also gave a viability, T/C [11] of 184%, a viability, T/C [12] of 179% and a viability, T/C [13] of 175%. The viability, T/C [14] was 199%, the viability, T/C [33] was 182% and the viability, T/C [34] was 133%. It also gave a viability, T/C [15] of 5.49%, a viability, T/C [16] of 6.26% and a viability, T/C [17] of 5.8%. It also gave a viability, T/C [18] of 5.69%, a viability, T/C [35] of 4.92% and a viability, T/C [36] of 2.57%. The viability, T/C [19] was 0.15%, the viability, T/C [20] was 0.19% and the viability, T/C [21] was 0.18%. It also gave a viability, T/C [22] of 0.36%, a viability, T/C [37] of 0.15% and a viability, T/C [38] of 0.14%. For the same molecule, the viability, T/C [23] was 0.28%, the viability, T/C [24] was 0.97% and the viability, T/C [25] was 0.25%. For the same molecule, the viability, T/C [26] was 0.24%, the viability, T/C [39] was 0.25% and the viability, T/C [40] was 0.31%. For the same molecule, the viability, T/C [27] was 0.4%, the viability, T/C [28] was 0.42% and the viability, T/C [29] was 0.35%. For the same molecule, the viability, T/C [30] was 0.41%, the viability, T/C [41] was 0.42% and the viability, T/C [42] was 0.36%.
